The text below walks through data of US8975265B2, “Substituted imidazo[1,2-a]pyrimidines and —pyridines” (Bayer Intellectual Property GmbH, priority 2010, dated 2015).

SMILES strings stand for the structures.

The IC50 is the point on the concentration scale where inhibition reaches its midpoint.

For test [1], the target named is His-tagged human recombinant kinase full-length Akt1 (Homo sapiens (Human), UniProt P31749). The test can be described thus: Akt1 kinase assay (TR-FRET). Type of test: biochemical. The note with it: 10 μM ATP; read-out: Akt1, median IC50. The protocol:
Biological Assay 1.0: Akt1 Kinase Assay
Akt1 inhibitory activity of compounds of the present invention was quantified employing the Akt1 TR-FRET assay as described in the following paragraphs.
As substrate for the kinase reaction the biotinylated peptide biotin-Ahx-[…] (C-terminus in amide form) was used which can be purchased e.g. from the company Biosynthan GmbH (Berlin-Buch, Germany).
For the assay 50 nl of a 100 fold concentrated solution of the test compound in DMSO was pipetted into a black low volume 384 well microtiter plate (Greiner Bio-One, Frickenhausen, Germany), 2 μl of a solution of Akt1 in assay buffer [50 mM TRIS/HCl pH 7.5, 5 mM MgCl2, 1 mM dithiothreitol, 0.02% (v/v) Triton X-100 (Sigma)] were added and the mixture was incubated for 15 min at 22° C. to allow prebinding of the test compounds to the enzyme before the start of the kinase reaction. […] The concentration of Akt1 in the assay was adjusted depending of the activity of the enzyme lot and was chosen appropriate to have the assay in the linear range, typical enzyme concentrations were in the range of about 0.05 ng/μl (final conc. in the 5 μl assay volume).
The resulting mixture was incubated 1 h at 22° C. to allow the binding of the biotinylated phosphorylated peptide to the streptavidine-XL665 and the antibodies. Subsequently the amount of phosphorylated substrate was evaluated by measurement of the resonance energy transfer from the anti-mouse-IgG-Eu-Chelate to the streptavidine-XL665.

Test [2] relates to p-AKT1/2/3-S473 in KPL4 breast tumour cell line. The test can be described thus: Cellular p-AKT1/2/3-S473 assay. Type of test: cell-based. The note with it: KPL4 breast tumour cell line, 2 hours treatment; read-out: pAKT-S743 median IC50. How it is done:
The molecular mechanism of action was investigated in a set of experiments to assess the inhibition of the PI3K-AKT-mTOR pathway in responsive cell lines such as KPL4 breast tumour cell line (PIK3CAH1047R, HER20/E and hormone independent). The phospho-substrates of PI3K-AKT-mTOR axis were used as the read-outs to reflect pathway inhibition. Cells were seeded at 60-80% confluency per well in 96-well cell culture plates. After overnight incubation at 37° C. 5% CO2, cells were treated with compounds and vehicle at 37° C. for 2 hours. […] All measurements where at least done in duplicates and confirmed by independent repetition.
Alternatively pAKT-S473 was measured using the “Akt Duplex” of the MULTI-SPOT® Assay System (Fa. Meso Scale Discovery, Cat# N41100B-1) following manufacturers instructions. Each assay used 20 μg of protein extract and measured total AKT and p-AKT content simultaneously in one well. All measurements where at least done in duplicates and confirmed by independent repetition. Values for P-AKT are expressed as percentage of P-AKT level compared to total-AKT content of the extracts.

Test [3] relates to KPL-4 breast cancer cell line. The test can be described thus: Tumor cell proliferation assay (CellTiter-Glo, 72 h), KPL-4. Type of test: cell-based. The protocol: Biological Assay 4.0: Tumor Cell Proliferation Assays
Compounds were tested in a cell-based assay that measures the capacity of the compounds to inhibit tumour cell proliferation following a 72h drug exposure. Cell viability is determined using CellTiter-Glow® (CTG, Promega, cat# G7571/2/3). The CellTiter-Glo® Luminescent Cell Viability Assay is a homogeneous method to determine the number of viable cells in culture. Detection is based on using the luciferase reaction to measure the amount of ATP from viable cells. The amount of ATP in cells correlates with cell viability. Within minutes after a loss of membrane integrity, cells lose the ability to synthesize ATP, and endogenous ATPases destroy any remaining ATP; thus the levels of ATP fall precipitously.
For each cell line assayed, cells were plated onto a separate plate for determination of […] at t=0 hour and t=72 hour time points. Following overnight incubation at 37° C., chemiluminescence values for the t=0 samples were determined after adding 10 μl medium and 100 μl CTG solution according to manufacture protocol. Plates for the t=72 hour time points were treated with compounds diluted into growth medium at ten times final concentration added in 10 μL to the cell culture plate. Cells were then incubated for 72 hours at 37° C. Chemiluminescence values for the t=72 hour samples were determined. […] Experiments were controlled using a reference compound as standard.
On the technique in general: Cellular ATP, detected with luciferase, serves as a proxy for viable cell number.

Chain of His-tagged human recombinant kinase full-length Akt1 (P31749 whole entry): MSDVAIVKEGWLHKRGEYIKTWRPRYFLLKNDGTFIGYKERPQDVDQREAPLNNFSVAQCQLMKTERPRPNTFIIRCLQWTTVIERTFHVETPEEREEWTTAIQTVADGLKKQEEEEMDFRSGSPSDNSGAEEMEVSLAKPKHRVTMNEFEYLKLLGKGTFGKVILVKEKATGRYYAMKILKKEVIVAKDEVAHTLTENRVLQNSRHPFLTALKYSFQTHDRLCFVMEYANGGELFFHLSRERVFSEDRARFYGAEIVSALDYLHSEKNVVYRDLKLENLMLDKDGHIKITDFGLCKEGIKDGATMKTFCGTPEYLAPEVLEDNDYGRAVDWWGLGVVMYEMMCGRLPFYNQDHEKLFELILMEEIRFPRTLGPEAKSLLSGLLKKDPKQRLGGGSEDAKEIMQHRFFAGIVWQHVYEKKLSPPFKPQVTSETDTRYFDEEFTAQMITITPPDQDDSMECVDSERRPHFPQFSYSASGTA

For the compound `NC1(c2ccc(-c3nc4ccc(O)cn4c3-c3ccccc3)cc2)CCC1` [Example 5-0, 2-[4-(1-amino-cyclobutyl)-phenyl]-3-phenyl-imidazo[1,2-a]pyridin-6-ol], the IC50 came to 303 nM in test [1]; 103 nM in test [2]; 3200 nM in test [3] (KPL4, 72h drug exposure).
`COC(=O)COc1ccc2nc(-c3ccc(C4(N)CCC4)cc3)c(-c3ccccc3)n2c1` [Example 9-4]: the IC50 in test [1] was determined as 179 nM; in test [2], 6470 nM; in test [3] (KPL4, 72h drug exposure) it was 3100 nM.
As to `NC1(c2ccc(-c3nc4ccc(C(=O)NO)cn4c3-c3ccccc3)cc2)CCC1` [Example 2-59], the half-inhibitory concentration (IC50) stood at 257 nM in test [1]; 236 nM in test [2]; 3800 nM in test [3] (KPL4, 72h drug exposure).
The like results for `NC1(c2ccc(-c3nc4cc(O)ccn4c3-c3ccccc3)cc2)CCC1` [Example 10-0, 2-[4-(1-amino-cyclobutyl)-phenyl]-3-phenyl-imidazo[1,2-a]pyridin-7-ol] were, in that order, 1270 nM, 308 nM and 7900 nM.
The like results for `CNC(=O)Nc1ccn2c(-c3ccccc3)c(-c3ccc(C4(N)CCC4)cc3)nc2c1` [Example 1-14] were, in that order, 588 nM, 1170 nM and 9800 nM.
For `NC1(c2ccc(-c3nc4cc(Cl)ccn4c3-c3ccccc3)cc2)CCC1` [Example 2-66], the IC50 in test [1] worked out at 113 nM; in test [2], 134 nM; in test [3] (KPL4, 72h drug exposure), 1800 nM.
Consider `NC1(c2ccc(-c3nc4cc(-c5ccncc5)ccn4c3-c3ccccc3)cc2)CCC1` [Example 2-109, 1-[4-(3-phenyl-7-pyridin-4-yl-imidazo[1,2-a]pyridin-2-yl)-phenyl]-cyclobutylamine], for which the IC50 in test [1] is 181 nM; in test [2] it was 28 nM; in test [3] (KPL4, 72h drug exposure) it was 1500 nM.
Regarding `NC1(c2ccc(-c3nc4cc(C(=O)N5CCCC5)ccn4c3-c3ccccc3)cc2)CCC1` [Example 2-42], the IC50 in test [1] amounted to 19400 nM; in test [2], 1240 nM; in test [3] (KPL4, 72h drug exposure), 9200 nM.
In the case of `NC1(c2ccc(-c3nc4ccc(C(=O)NCCF)cn4c3-c3ccccc3)cc2)CCC1` [Example 2-54], the half-inhibitory concentration (IC50) in test [1] came to 423 nM; in test [2] it was 83 nM; in test [3] (KPL4, 72h drug exposure), 1300 nM.
The like results for `NC1(c2ccc(-c3nc4ccc(C(=O)NCCO)cn4c3-c3ccccc3)cc2)CCC1` [Example 2-55] were, in that order, 1140 nM, 308 nM and 5500 nM.
Turning to `NC1(c2ccc(-c3nc4ccc(-c5ccncc5)cn4c3-c3ccccc3)cc2)CCC1` [Example 2-136], the IC50 in test [1] came to 533 nM; in test [2], 150 nM; in test [3] (KPL4, 72h drug exposure) it was 1900 nM.
Turning to `NC1(c2ccc(-c3nc4cc(C5CC5)ccn4c3-c3ccccc3)cc2)CCC1` [Example 2-37], the IC50 in test [1] came out at 1640 nM; in test [2], 441 nM; in test [3] (KPL4, 72h drug exposure) it was 1900 nM.
Take `COC(=O)/C=C/c1ccc2nc(-c3ccc(C4(N)CCC4)cc3)c(-c3ccccc3)n2c1` [Example 2-141]: the IC50 came to 196 nM in test [1], 361 nM in test [2] and 5300 nM in test [3] (72h drug exposure).
On to `CCc1cnc2nc(-c3ccc(C4(N)CCC4)cc3)c(-c3ccccc3)n2c1` [Example 2-33], for which the IC50 worked out at 379 nM in test [1]; 187 nM in test [2]; 1000 nM in test [3] (KPL4, 72h drug exposure).
In the case of `CCOc1ccc2nc(-c3ccc(C4(N)CCC4)cc3)c(-c3ccccc3)n2c1` [Example 2-107, 1-[4-(6-ethoxy-3-phenyl-imidazo[1,2-a]pyridin-2-yl)-phenyl]-cyclobutylamine], the IC50 in test [1] is 204 nM; in test [2], 253 nM; in test [3] (KPL4, 72h drug exposure), 1700 nM.
Turning to `NC1(c2ccc(-c3nc4ccc(C(=O)NC5CC5)cn4c3-c3ccccc3)cc2)CCC1` [Example 2-57], the IC50 in test [1] was 493 nM; in test [2], 147 nM; in test [3] (KPL4, 72h drug exposure), 3100 nM.
Take `NC1(c2ccc(-c3nc4cc(-n5cccn5)ccn4c3-c3ccccc3)cc2)CCC1` [Example 1-11]: the IC50 in test [1] is 102 nM; in test [2] it was 37 nM; in test [3] (KPL4, 72h drug exposure), 1500 nM.
For `NC(=O)C1(COc2ccn3c(-c4ccccc4)c(-c4ccc(C5(N)CCC5)cc4)nc3n2)CC1` [Example 2-65], the IC50 worked out at 1070 nM in test [1]; 3840 nM in test [2]; 10000 nM in test [3] (KPL4, 72h drug exposure).
The like results for `N#CCOc1ccc2nc(-c3ccc(C4(N)CCC4)cc3)c(-c3ccccc3)n2c1` [Example 9-5] were, in that order, 96 nM, 51 nM and 2200 nM.
Turning to `CC(C)NC(=O)c1ccc2nc(-c3ccc(C4(N)CCC4)cc3)c(-c3ccccc3)n2c1` [Example 2-53], the IC50 in test [1] was 1710 nM; in test [2], 276 nM; in test [3] (KPL4, 72h drug exposure), 2000 nM.
For `COc1ccn2c(-c3ccccc3)c(-c3ccc(C4(N)CCC4)cc3)nc2c1` [Example 2-8], the IC50 in test [1] is 96 nM; in test [2] it was 237 nM; in test [3] (KPL4, 72h drug exposure) it was 1800 nM.
Regarding `COC(=O)COc1ccn2c(-c3ccccc3)c(-c3ccc(C4(N)CCC4)cc3)nc2c1` [Example 9-0, {2-[4-(1-amino-cyclobutyl)-phenyl]-3-phenyl-imidazo[1,2-a]pyridin-7-yloxy}-acetic acid methyl ester], the IC50 in test [1] turned out to be 158 nM; in test [2] it was 923 nM; in test [3] (KPL4, 72h drug exposure), 2500 nM.
For `COCCNC(=O)c1ccc2nc(-c3ccc(C4(N)CCC4)cc3)c(-c3ccccc3)n2c1` [Example 2-56], the IC50 in test [1] was found to be 452 nM; in test [2], 200 nM; in test [3] (KPL4, 72h drug exposure), 3400 nM.
The like results for `CN(C)C(=O)c1ccc2nc(-c3ccc(C4(N)CCC4)cc3)c(-c3ccccc3)n2c1` [Example 2-61] were, in that order, 1900 nM, 781 nM and 9400 nM.
The like results for `COC(=O)c1cccn2c(-c3ccccc3)c(-c3ccc(C4(N)CCC4)cc3)nc12` [Example 2-23] were, in that order, 47 nM, 1010 nM and 9800 nM.
Consider `NCCOc1ccn2c(-c3ccccc3)c(-c3ccc(C4(N)CCC4)cc3)nc2n1` [Example 4-0, 1-{4-[7-(2-amino-ethoxy)-3-phenyl-imidazo[1,2-a]pyrimidin-2-yl]-phenyl}-cyclobutylamine], for which the IC50 came out at 548 nM in test [1]; 1460 nM in test [2]; 4600 nM in test [3] (KPL4, 72h drug exposure).
The like results for `NC1(c2ccc(-c3nc4cc(-c5cc[nH]n5)ccn4c3-c3ccccc3)cc2)CCC1` [Example 2-112] were, in that order, 153 nM, 66 nM and 1700 nM.
The like results for `CCc1ccc2nc(-c3ccc(C4(N)CCC4)cc3)c(-c3ccccc3)n2c1` [Example 2-38] were, in that order, 260 nM, 467 nM and 1900 nM.
With `NC1(c2ccc(-c3nc4ccc(C(=O)NCC5CC5)cn4c3-c3ccccc3)cc2)CCC1` [Example 2-58], the IC50 in test [1] amounted to 342 nM; in test [2], 193 nM; in test [3] (KPL4, 72h drug exposure) it was 1900 nM.
Take `Cc1ccn2c(-c3ccccc3)c(-c3ccc(C4(N)CCC4)cc3)nc2c1` [Example 2-4]: the IC50 in test [1] came to 829 nM; in test [2] it was 292 nM; in test [3] (KPL4, 72h drug exposure), 2000 nM.
